# Reference: patent publication US20230220353A1, “IN VITRO LIVER ORGANOIDS AND MINI-BILE DUCT MODELS OF BILIARY ARTRESIA AND APPLICATIONS THEREOF” (priority 2022, published 2023)
# What was measured:
# [1] = test system: human liver organoids; test: Growth and morphology of human liver organoids (Hematoxylin and Eosin staining); type: cell-based; settings: 2 μg/ml biliatresone
# Method: Briefly, liver biopsy was minced and digested in gentle MACS-C Tube with 5 ml digestion medium (Multi Tissue Dissociation Kit 1), filtered (70 μm and 30 μm) and sorted by human CD326 (EpCAM) magnetic beads. CD326 positive cells were mixed with Matrigel (50,000 cells in 50 μl) and added to each well of a four-well culture plate (Nunc™ 4-Well Dishes). After Matrigel solidification, organoid medium (Advanced DMEM/F12 supplemented with 1% Penicillin/Streptomycin (Invitrogen), 250 ng/ml Amphotericin B (GIBCO), […], 1% N2 and 1% B27(GIBCO), 1.25 mM N-Acetylcysteine (Sigma), 10 nM gastrin (Sigma), and the growth factors: 50 ng/ml mEGF (Peprotech), 100 ng/ml FGF10 (Peprotech), 25 ng/ml HGF (Peprotech), 10 mM Nicotinamide (Sigma), 5 μM A83.01 (Tocris), and 10 μM FSK (Tocris), 25 ng/ml Noggin (Peprotech), 500 ng/ml R-Spondin 1 (R&D), 100 ng/ml Wnt3a (R&D), 10 μM Y27632 (Sigma Aldrich)) was added for organoid culturing. The medium was changed every three days. After culturing for 5 days, biliatresone solution (2867, Axon MEDCHEM; 2 μg/ml in DMSO) was added into the medium and the organoids were cultured for different periods for subsequent analysis. For the untreated control culture, DMSO (same volume as biliatresone) was added to the culture. FIG. 1 is a schematic diagram of the generation of biliatresone treated human liver organoids. […]
# [2] = test system: human cholangiocytes; test: Cilia mechano-sensory calcium influx assay in mini-bile duct under shear flow (Calbryte 520); type: cell-based; settings: 2 μg/ml for 5 days, shear flow 1 dyne/cm2, vs untreated cholangiocytes
# Method: The organoids were released from the Matrigel by cold Advanced DMEM. The organoid pellets were obtained by centrifugation at 300 g, 3 minutes. Afterwards, the organoids were digested for 5 minutes at 37° C. via 1 mL of TrypLE Express Enzyme (1×). About 5,000 of organoid cells were seeded into each channel of the Matrigel coated 6-channel ibidi microfluidic chips (80607, ibidi), and the microfluidic chips were incubated at 37° C. in incubator. At day 3, monoloayer of cholangiocytes was formed representing the mini-bile duct with the luminal side facing the medium and the basal side facing the bottom of the microfluidic chips. To prepare for the calcium influx measurement, cholangiocyte monolayer was first incubated with 5 μM of Calbryte 520-AM (ATT) (prepared in Hanks' balanced salt solution, HBSS) for 1 hour at 37° C. Then, the cholangiocytes were washed with HBSS (5 minutes for 3 times). […] Time-lapse images were acquired for green fluorescence for 20 seconds (1-second intervals and 10 milliseconds exposure time) using Nikon Ti2e microscope (Nikon, Japan). […]
# On day 3 post confluence, cholangiocytes were incubated with 5 μM of Calbryte 520-AM (ATT) (prepared in Hanks' balanced salt solution, HBSS) for 1 hour at 37° C. […] Time-lapse images were acquired for green fluorescence for 20 seconds (1-second intervals and 10 milliseconds exposure time) using Nikon Ti2e microscope (Nikon, Japan). […]
# [3] = test system: human liver organoids; test: Immunostaining of human liver organoids for differentiation, polarity, cytoskeleton and β-amyloid markers; type: cell-based
# Method: Hepatocytic differentiation in human organoids was assessed by immuno-fluorescence for hepatocyte maker (HNF4A). Organoids in the Matrigel were washed with PBS (phosphate-buffered saline) before being fixed with 4% paraformaldehyde at room temperature for 20 minutes. The organoids were permeabilized with Triton X-100 (0.5% in PBS) for 20 minutes and blocked with 3% bovine serum albumin (BSA, Sigma-Aldrich) in PBS with 0.05% Triton X-100 (PBST) for 30 minutes at room temperature. The organoids were then incubated in primary antibodies (diluted in PBST with 3% BSA) at 4° C. overnight. After PBST washes (5 minutes for 3 times), organoids were incubated in secondary antibodies (diluted in PBST with 3% BSA) for 2 hours at room temperature. Afterward, the organoids were rinsed with PBS 3 times and incubated with DAPI solution for 30 minutes at room temperature. The organoids were rinsed with PBS (5 minutes for 3 times). Primary and secondary antibodies used in this examples were anti-ZO-1 (1:50, RA231621, Thermo Fisher), anti-CK19 (1:200, ab220193, Abcam), anti-F-actin (1:500, A22287, Thermo Fisher), anti-beta-amyloid (1:200, SIG-39220, 4G8, BioLegend), anti-HNF4A (1:50, ab201460, Abcam), Alexa Fluor 488 (1:500, A11008, Invitrogen) and Alexa Fluor 594 (1:500, A11032, Invitrogen).
# (§1) Organoids were imaged on a laser confocal microscopy (Leica) equipped with a 20× dry objective and a 63× oil-immersion objective. Images were analyzed using ImageJ software. For quantification of the number of cilia from each group, the organoids were imaged using confocal microscopy (0.8 μm Z-axis interval, 40 μm in thickness). Maximum intensity projection was performed for visualization of the cilia in the organoids. FIG. 3A are representative images of control and day-2 biliatresone-treated human liver organoids stained for HNF4A (green). Nuclei were stained with DAPI (blue). The percentage of HNF4A positive cells in control and day-2 biliatresone-treated organoids were determined by counting the total number of cells and HNF4A+ cells of the organoids. Number of organoids counted in each group=3; *, p<0.05, student's t-test; error bars indicated the standard deviation.
# To test if biliatresone induces apical-basal polarity defects in human organoids, the control group and biliatresone-treated organoids were stained with anti-ZO-1 antibody. FIG. 4 depicts the result of immunostaining of control and day-2 biliatresone-treated human liver organoids for ZO-1 (green) and CK19 (red). Nuclei were stained with DAPI (blue).
# To investigate if biliatresone also induces cytoskeleton defects and Aβ accumulation in human organoids, Immunostaining was carried out for the control and day-2 biliatresone-treated human liver organoids for cytoskeleton protein F-actin (green) and β-amyloid (red). Nuclei were stained with DAPI (blue).
# The percentages of β-amyloid positive cells in control and day-2 biliatresone-treated organoids were determined by counting total number of cells and β-amyloid+ cells of the organoids. Number of organoids counted in each group=3; *, p<0.05, student's t-test; error bars indicated the standard deviation.
# [4] = test system: human liver organoids; test: Ciliated cholangiocyte count (pericentrin / acetylated α-tubulin immunostaining); type: cell-based
# Method: as §1
# To investigate if biliatresone disturbed ciliogenesis in human organoids, control organoids and biliatresone-treated organoids were immuno-stained for ciliary proteins Pericentrin (PCNT) and alpha-tubulin. […] The percentages of ciliated cells in control and biliatresone-treated organoids were determined by counting total number of cells and ciliated cells of the organoids. Number of organoids counted in each group=3; *, p<0.05, student's t-test; error bars indicated the standard deviation.
# [5] = test system: SOX17; test: SOX17 mRNA expression by real-time PCR normalized to GAPDH; type: cell-based, human; settings: day-2 treated organoids vs control
# Text: Gene expressions in liver ductal organoids with or without biliatresone treatment for 2 day and 5 days were investigated. mRNA expression levels were characterized by real-time PCR for SOX17 normalized to GAPDH.
# [6] = test system: human liver organoids; test: FITC-labeled dextran diffusion test (tight junction barrier integrity); type: cell-based; settings: day-2 treated organoids, after 10 minutes of incubation; not observed in control
# Method: In order to determine the integrity of liver organoids, a FITC-labeled dextran diffusion test was carried out to investigate if biliatresone-treated organoids has defects in the tight junction barrier for solutes. […] The fluorescent intensity of liver organoids was imaged using laser confocal microscopy at 10 and 30 minutes.
# [7] = target: MDR1 (Homo sapiens, UniProt P08183); test: MDR1 activity assay (MDR1-mediated Rhodamine 123 transport assay); settings: day-2 biliatresone-treated organoids, Rhodamine 123 100 μM, 30 minutes
# MDR1, sequence (P08183 whole entry): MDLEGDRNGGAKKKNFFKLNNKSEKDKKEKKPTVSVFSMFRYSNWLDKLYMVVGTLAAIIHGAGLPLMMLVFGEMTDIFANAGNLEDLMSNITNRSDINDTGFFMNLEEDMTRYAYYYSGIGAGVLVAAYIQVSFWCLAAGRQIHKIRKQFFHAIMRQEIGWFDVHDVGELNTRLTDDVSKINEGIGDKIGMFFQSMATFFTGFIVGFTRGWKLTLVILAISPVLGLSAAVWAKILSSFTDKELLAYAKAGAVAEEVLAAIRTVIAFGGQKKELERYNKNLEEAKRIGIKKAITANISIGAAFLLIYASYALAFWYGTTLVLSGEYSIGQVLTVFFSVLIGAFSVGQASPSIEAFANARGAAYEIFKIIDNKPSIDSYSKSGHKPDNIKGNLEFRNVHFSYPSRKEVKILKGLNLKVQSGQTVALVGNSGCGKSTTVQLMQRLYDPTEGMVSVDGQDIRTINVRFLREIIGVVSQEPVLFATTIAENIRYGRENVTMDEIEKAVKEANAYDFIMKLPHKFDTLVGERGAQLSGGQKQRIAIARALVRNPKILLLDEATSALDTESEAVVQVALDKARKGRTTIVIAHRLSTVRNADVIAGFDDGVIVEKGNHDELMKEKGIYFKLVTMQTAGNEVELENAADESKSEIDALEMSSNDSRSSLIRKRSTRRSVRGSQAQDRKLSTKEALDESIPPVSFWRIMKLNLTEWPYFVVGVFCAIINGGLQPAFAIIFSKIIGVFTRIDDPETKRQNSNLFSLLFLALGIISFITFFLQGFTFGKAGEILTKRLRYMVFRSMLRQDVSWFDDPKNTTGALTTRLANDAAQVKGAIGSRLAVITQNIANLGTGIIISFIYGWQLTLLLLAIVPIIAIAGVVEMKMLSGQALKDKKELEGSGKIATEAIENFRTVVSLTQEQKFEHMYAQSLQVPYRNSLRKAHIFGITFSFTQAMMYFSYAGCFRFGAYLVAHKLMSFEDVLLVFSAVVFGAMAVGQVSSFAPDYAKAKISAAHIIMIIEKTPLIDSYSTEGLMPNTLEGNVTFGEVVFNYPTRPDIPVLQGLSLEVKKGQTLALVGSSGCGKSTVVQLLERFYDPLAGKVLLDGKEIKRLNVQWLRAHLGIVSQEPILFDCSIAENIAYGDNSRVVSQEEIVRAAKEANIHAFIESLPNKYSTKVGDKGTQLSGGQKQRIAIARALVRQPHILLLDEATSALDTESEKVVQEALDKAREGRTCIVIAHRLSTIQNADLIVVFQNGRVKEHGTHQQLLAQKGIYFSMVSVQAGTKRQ
# Method: A MDR1 activity assay (MDR1-mediated Rhodamine 123 (R123) transport assay) was then performed to investigate the defective cholangiocyte differentiation of biliatresone-treated organoids.
# Afterward, the liver organoids were washed with PBS and incubated in culture medium containing Rhodamine 123 (100 μM) at 37° C. for 30 minutes. After washing with PBS, the fluorescence of liver organoids was then visualized by laser confocal microscopy (Leica) immediately (as 0 minutes) and after 30 minutes incubation in culture medium.
# [8] = test system: GSH; test: GSH level in liver organoids; type: cell-based, human
# Method: GSH levels were measured in liver organoids from 0 to 48 hours without (Ctrl) or with biliatresone. Data was obtained from 3 wells in each group; *, p<0.05, student's t-test; error bars indicated the standard deviation.
# [9] = day-2 treated organoids vs control
compound,measurement,setting,value
"C=C(C(=O)c1c(OC)cc2c(c1OC)OCO2)c1ccccc1O [biliatresone, Biliatresone]",organoid morphology,"[1]; day 5, vs DMSO control",not well-expanded
same,organoid diameter,"[1]; day 5, control organoids 25-100 μm",5-20 μm
same,extent of calcium influx,[2],significantly reduced
same,percentage of evoked cells after perfusion stimulation,[2],significantly reduced
same,percentage of Aβ positive cells,"[3]; day-2 treated culture vs control culture (no Aβ positive cells in control), p<0.05",significantly higher
same,ZO-1 immuno-reactivity,[3]; [9],markedly reduced
same,expression of cholangiocyte MDR1,[3]; [9],drastically reduced
same,percentage of HNF4A+ cells in organoids,"[3]; day-2 treated organoids, 2 μg/ml, Mean±SD, n=3, control 14.9±2%",57.3±8%
same,F-actin localization,"[3]; day-2 treated organoids, control: apical side only",both the apical and the basal sides
same,expression of cholangiocyte marker CK19,[3]; treated organoids vs control,drastically reduced
same,percentage of ciliated cells,"[4]; day 1 of treatment, Mean±SD, control 10.7±5%",4.2±2%
same,percentage of ciliated cells,[4]; day 3 of treatment,0%
same,SOX17 expression,[5],small but significant drop
same,FITC-dextran (10 kDa) localization,[6],localize in the lumen
same,R123 transport across the organoid membrane,[7],very inefficient
same,GSH level,"[8]; 6, 24 and 48 hours of treatment",restored
same,GSH level,[8]; 3 hours of treatment vs control,small but significant drop
